The values that follow come from PubChem BioAssay (NCI).

Several values for one entry are separate records, joined by “and”; a condition that tells them apart may be missing. Equal entries are not always repeated.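 Grown in 96-well plates, cells were treated for 48 hours with each compound at five concentrations. Insufficient inhibition: endpoint recorded as highest concentration tested. The concentration for 50% growth inhibition is given as GI50. TGI: total growth inhibition.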 Where only a bound is given, the exact number is not on record here.

Test in all cases: NCI-60 cell line screen, 48 h
Assay [1] relates to UO-31 renal.
In assay [2] the test system is HCT-116 colon.
The subject of assay [3] is LOX IMVI melanoma.
The test system of assay [4] is K-562 leukemia.
The test system of assay [5] is HS 578T breast.
For assay [6], the system named is OVCAR-8 ovarian.
The test system of assay [7] is CCRF-CEM leukemia.
The subject of assay [8] is A498 renal.
The subject of assay [9] is MCF7 breast.

Consider `COC1/C=C\C=C(/C)C(=O)Nc2cc3nc4ccc(Br)cc4oc-3c(c2=O)CC(C)CC(OC)C(O)C(C)/C=C(\C)C1OC(N)=O` (centres undefined), for which the TGI in assay [1] came out at 4.05 µM; in assay [2], 4.92 µM; in assay [3] it was 0.959 µM; in [4] it was 7.03 µM; in assay [5], 22.9 µM; in assay [6], 14.5 µM. The TGI in assay [7] stood at 1.9 µM; in assay [8] it was 30.9 µM. Further, the GI50 in assay [2] is 0.00083 µM; in [3], 0.00271 µM; in assay [4], 0.000503 µM; in [7], 0.00247 µM and 0.0182 µM.

On to `N#CCc1ccc(C(C#N)/C(CCCC(=O)Nc2cccc([N+](=O)[O-])c2)=N\NC(=O)NN)cc1` (centres undefined), for which the TGI in [1], in assay [2], in [4], in [6], in [7] and in assay [8] was over 100 µM throughout.

With `C1CNCCNCCNCCN1`, the TGI in assay [1], in assay [2], in assay [3], in [4], in [6] and in assay [7] was over 100 µM throughout. In assay [8], this compound came in with a TGI of over 100 µM.

Regarding `C[C@]12CC[C@H](O)CC1=CC[C@@H]1C2CC[C@]2(C)c3nn(-c4ccc(F)cc4)nc3CC12` (some centres undefined), the TGI in assay [1], in assay [2], in assay [4], in assay [9], in assay [5] and in [6] was over 100 µM throughout. For the same compound, the TGI in assay [7] and in assay [8] was over 100 µM each time.

In the case of `O=C1CCCCCCCCCCC(=O)C2CCOCCOCCOCCC1Cc1cccc(n1)C2`, the TGI in assay [1], in assay [2], in [3], in assay [4], in assay [6] and in [7] was over 100 µM each time. The same compound had a TGI in [8] of over 100 µM.

Consider `CC(=O)NC1=C(Nc2ccc(C)cc2)C(=O)c2ccccc2C1=O`, for which the TGI is over 75 µM in assay [1]; 48.5 µM in assay [2]; 21.3 µM in assay [3]; over 75 µM in assay [4]; over 75 µM in assay [6]; 58.4 µM in assay [7]. Besides, in assay [8], the TGI was over 75 µM.

In the case of `COC(=O)/C=C(C)/C=C/c1cc(C(C)=O)c(C)o1`, the TGI in assay [1], in assay [2], in assay [3], in assay [4], in [6] and in [7] was over 100 µM each time.

With `C=CC[C@H]1C[C@@]2(C)OC[C@H](C(C)C)N2C1=O`, the TGI in [2], in assay [3], in assay [4], in assay [6], in assay [7] and in [8] was over 100 µM throughout.

As for `O=[N+]([O-])c1ccc(Sc2c3ccccc3nc3ccccc23)cc1`, the TGI in assay [1], in assay [2], in assay [3], in [4], in assay [6] and in [7] was over 100 µM throughout.

`NCCCN(CCCN)CCCNCc1c2ccccc2c(CNCCCN(CCCN)CCCN)c2ccccc12`: the TGI in assay [1] is over 100 µM; in assay [2], 47.9 µM; in assay [3] it was 42 µM; in assay [4] it was over 100 µM; in [6], 25.8 µM; in assay [7], over 100 µM. The compound also had a TGI in assay [8] of 60.2 µM.

For the compound `S=c1[nH]c(=S)c2sc(=S)n(-c3ccccc3)c2[nH]1`, the TGI in [1], in assay [2], in assay [3], in assay [4], in assay [6] and in assay [7] was over 100 µM throughout. For the same compound, in assay [8], the TGI is over 100 µM.

In the case of `CC1Cc2c(N)nc(NN)nc2NC1=O` (centres undefined), the TGI in assay [1], in assay [2], in assay [3], in assay [4], in assay [6] and in assay [7] was over 100 µM in each case.

In the case of `CCOc1cc2c(cnc3c4cc(OC)c(OC)cc4ccc23)cc1OC`, the TGI in assay [1], in assay [2], in [4], in assay [6], in [7] and in assay [8] was over 100 µM each time.

As for `COC1/C(=C\C(=O)OC(C)(C)C)c2ccccc2N1C(C)=O` (centres undefined), the TGI in assay [1], in assay [2], in [4], in assay [6], in assay [7] and in assay [8] was over 100 µM in each case.

Consider `Cc1cccc(C)c1NC(=O)/C(Cl)=C(/Cl)C(=O)O`, for which the TGI in assay [1] is 21.7 µM; in assay [2], 36.4 µM; in assay [3], 34.3 µM; in assay [4], 17.4 µM; in assay [9] it was 46.3 µM; in [5] it was 83.2 µM. The TGI came out at 40.9 µM in assay [6], 14.1 µM in assay [7] and 60.6 µM in [8].

Regarding `Clc1ccc(-n2nnc(C3=NCCCN3)c2-c2ccccc2)cc1`, the TGI in assay [1], in assay [2], in [3], in assay [4], in [6] and in assay [7] was over 100 µM each time. Also, in [8], the TGI was over 100 µM.

With `CC(C)=CC(=O)Oc1ccc([N+](=O)[O-])cc1`, the TGI in assay [1], in assay [2], in assay [4], in [6], in assay [7] and in assay [8] was over 100 µM each time.
